How the values were obtained:
Assay type in all cases: in vivo
[1] = tested on: white blood cell count and classification in BALF of COPD model mouse; experiment: Effect on white blood cell count and classification in BALF of COPD model mouse; settings: COPD mouse (LPS plus smoke exposure 30 days), ig 7 d, dose/kg: dexamethasone 1 mg, Test group 1 50, 2 25, 3 10, picrinine 10, vallesamine 6, scholaricine 7, 19-epi-scholaricine 2 mg, x ± SD
Method: (§1) Animal source: 25˜30 g male ICR mouse, from laboratory animal department of Kunming Medical University, License No. SCXK (Dian) 2011-0004.
(§2) Method and route: lipopolysaccharide (LPS) plus smoke exposure was used for 30 days to induce mouse chronic obstructive pulmonary disease model; and after intragastrical administration for 7 d at a dose of 20 mL/kg, the animal was sacrificed at the eighth day.
(§3) Picrinine group (10 mg/kg), Vallesamine group (6.0 mg/kg), Scholaricine group (7.0 mg/kg), 19-epischolaricine group (2.0 mg/kg).
(§4) Sample preparation: all the samples were prepared by using 0.5% carboxymethylcellulose sodium (0.5% CMC-Na).
Group and dose: in Test group 1, the ratio of picrinine, vallesamine, scholaricine and 19-epischolaricine by weight was 48:40:29:10, and the other groups and doses thereof were as described in Example 10.
Test index: total number of white blood cells and inflammatory cell classification in bronchoalveolar lavage fluid (BALF) were used as indexes, and were determined by full-automatic hemocytometer.

[2] = tested on: IL-6 in serum of COPD model mouse; experiment: Effect on IL-6 in serum of COPD model mouse; settings: ELISA, ig 7 d, dose/kg: dexamethasone 1 mg, Test group 1 50, 2 25, 3 10, picrinine 10, vallesamine 6, scholaricine 7, 19-epi-scholaricine 2 mg, x ± SD
Method: as §1, §2, §3, §4
Group and dose: in Test group 1, the ratio of picrinine, vallesamine, scholaricine and 19-epischolaricine by weight was 38:30:27:7, and the other groups and doses thereof were as described in Example 10.
Test index: IL-6 in serum was used as index, and was determined by enzyme linked immunosorbent assay.

[3] = tested on: CRP in serum in COPD model mouse; experiment: Effect on CRP in serum in COPD model mouse; settings: ELISA, ig 7 d, dose/kg: dexamethasone 1 mg, Test group 1 50, 2 25, 3 10, picrinine 10, vallesamine 6, scholaricine 7, 19-epi-scholaricine 2 mg, x ± SD
Method: as §1, §2, §3, §4
Group and dose: in Test group 1, the ratio of picrinine, vallesamine, scholaricine and 19-epischolaricine by weight was 25:19:20:4, and the other groups and doses thereof were as described in Example 10.
Test index: CRP in serum was used as index, and was determined by enzyme linked immunosorbent assay.

[4] = tested on: SOD in serum and homogenate of COPD model mouse; experiment: Effect on SOD in serum and homogenate of COPD model mouse; settings: ig 7 d, dose/kg: dexamethasone 1 mg, Test group 1 50, 2 25, 3 10, picrinine 10, vallesamine 6, scholaricine 7, 19-epi-scholaricine 2 mg, x ± SD
Method: as §1, §2, §3, §4
Group and dose: in Test group 1, the ratio of picrinine, vallesamine, scholaricine and 19-epischolaricine by weight was 16:11:12:3, and the other groups and doses thereof were as described in Example 10.
Test index: SOD in serum and lung homogenate was used as index, and was determined by xanthine oxidase method.

[5] = tested on: MDA in serum and homogenate of COPD model mouse; experiment: Effect on MDA in serum and homogenate of COPD model mouse; settings: ig 7 d, dose/kg: dexamethasone 1 mg, Test group 1 50, 2 25, 3 10, picrinine 10, vallesamine 6, scholaricine 7, 19-epi-scholaricine 2 mg, x ± SD
Method: as §1, §2, §3, §4
Group and dose: in Test group 1, the ratio of picrinine, vallesamine, scholaricine and 19-epischolaricine by weight was 9:6:5:1, and the other groups and doses thereof were as described in Example 10.
Test index: MDA in serum and homogenate was used as index, and was determined by thibabituric acid method.

[6] = tested on: WBC count and eosinophil percentage in BALF of asthma model mouse; experiment: Effect on WBC count and eosinophil percentage in BALF of asthma model mouse; settings: OVA-induced asthma mouse, ig 7 d, dose/kg: dexamethasone 2 mg, Test group 1 50, 2 25, picrinine 5.0, vallesamine 3.0, scholaricine 3.0, 19-epi-scholaricine 3.5 mg, x ± SD
Method: as §1
(§5) Method and route: ovalbumin (OVA) was used to induce mouse asthma model, and after intragastrical administration for 7 d at a dose of 20 mL/kg, the animal was sacrificed at the eighth day.
(§6) Test group 1: picrinine, vallesamine, scholaricine and 19-epischolaricine prepared in Example 1.7 were homogeneously mixed at different ratios by weight (50 mg/kg), Test group 2: the alkaloid composition prepared in Example 1.4 (25 mg/kg). […]
as §4
Group and dose: in Test group 1, the ratio of picrinine, vallesamine, scholaricine and 19-epischolaricine by weight was 41:45:28:7, and the other groups and doses thereof were as described in Example 11.
Test index: number of white blood cells (WBCs) and number of eosinophil in bronchoalveolar lavage fluid (BALF) were used as index, and were determined by full-automatic hemocytometer.

[7] = tested on: Eotaxin in serum of asthma model mouse; experiment: Effect on Eotaxin in serum of asthma model mouse; settings: ELISA, ig 7 d, dose/kg: dexamethasone 2.0 mg, Test group 1 50, 2 25, picrinine 5.0, vallesamine 3.0, scholaricine 3.0, 19-epi-scholaricine 3.5 mg, x ± SD
Method: as §1, §5, §6, §4
Group and dose: in Test group 1, the ratio of picrinine, vallesamine, scholaricine and 19-epischolaricine by weight was 37:42:30:8, and the other groups and doses thereof were as described in Example 11.
Test index: eosinophil chemotactic factor (Eotaxin) in serum was used as index, and was determined by enzyme linked immunosorbent assay.

[8] = tested on: IgE in serum of asthma model mouse; experiment: Effect on IgE in serum of asthma model mouse; settings: ELISA, ig 7 d, dose/kg: dexamethasone 2.0 mg, Test group 1 50, 2 25, picrinine 5.0, vallesamine 3.0, scholaricine 3.0, 19-epi-scholaricine 3.5 mg, x ± SD
Method: as §1, §5, §6, §4
Group and dose: In Test group 1, the ratio of picrinine, vallesamine, scholaricine and 19-epischolaricine by weight was 30:33:27:6, and the other groups and doses thereof were as described in Example 11.
Test index: immunoglobulin IgE in serum was used as index, and was determined by enzyme linked immunosorbent assay.

[9] = tested on: IL-4 in BALF of asthma model mouse; experiment: Effect on IL-4 in BALF of asthma model mouse; settings: ELISA, ig 7 d, dose/kg: dexamethasone 2.0 mg, Test group 1 50, 2 25, picrinine 5.0, vallesamine 3.0, scholaricine 3.0, 19-epi-scholaricine 3.5 mg, x ± SD
Method: as §1, §5, §6, §4
Group and dose: in Test group 1, the ratio of picrinine, vallesamine, scholaricine and 19-epischolaricine by weight was 25:18:15:3, and the other groups and doses thereof were as described in Example 11. […]

[10] = tested on: IL-10 in BALF of asthma model mouse; experiment: Effect on IL-10 in BALF of asthma model mouse; settings: ELISA, ig 7 d, dose/kg: dexamethasone 2.0 mg, Test group 1 50, 2 25, picrinine 5.0, vallesamine 3.0, scholaricine 3.0, 19-epi-scholaricine 3.5 mg, x ± SD
Method: as §1, §5, §6, §4
Group and dose: in Test group 1, the ratio of picrinine, vallesamine, scholaricine and 19-epischolaricine by weight was 18:13:14:3, and the other groups and doses thereof were as described in Example 11.
Test index: IL-10 in BALF was used as index, and was determined by enzyme linked immunosorbent assay.

[11] = tested on: SOD in serum and BALF of asthma model mouse; experiment: Effect on SOD in serum and BALF of asthma model mouse; settings: ig 7 d, dose/kg: dexamethasone 2.0 mg, Test group 1 50, 2 25, picrinine 5.0, vallesamine 3.0, scholaricine 3.0, 19-epi-scholaricine 3.5 mg, x ± SD
Method: as §1, §5, §6, §4
Group and dose: in Test group 1, the ratio of picrinine, vallesamine, scholaricine and 19-epischolaricine by weight was 12:10:9:2, and the other groups and doses thereof were as described in Example 11.
Test index: SOD in serum and BALF was used as index, and was determined by xanthine oxidase method.

[12] = tested on: MDA in serum and BALF of asthma model mouse; experiment: Effect on MDA in serum and BALF of asthma model mouse; settings: ig 7 d, dose/kg: dexamethasone 2.0 mg, Test group 1 50, 2 25, picrinine 5.0, vallesamine 3.0, scholaricine 3.0, 19-epi-scholaricine 3.5 mg, x ± SD
Method: as §1, §5, §6, §4
Group and dose: in Test group 1, the ratio of picrinine, vallesamine, scholaricine and 19-epischolaricine by weight was 8:6:5:1, and the other groups and doses thereof were as described in Example 11.
Test index: MDA in serum and BALF was used as index, and was determined by thiobarbituric acid method.

Question: Which results are given for `C[C@@H]1C[C@H]2[C@@H]3CCC4=CC(=O)C=C[C@]4(C)[C@@]3(F)[C@@H](O)C[C@]2(C)[C@@]1(O)C(=O)CO` [dexamethasone, reference compound]?
Answer: Leukocyte number [1]: 1.1 ± 0.5 ×10^5/mL; Neutrophil number [1]: 0.53 ± 0.50 ×10^5/mL; IL-6 [2]: 22.0 ± 2.0 pg/mL; CRP [3]: 22.3 ± 2.0 pg/mL; SOD homogenate ([4]; lung homogenate): 63.92 ± 5.84 U/mL; SOD Serum ([4]; serum): 86.85 ± 9.48 U/mL; MDA Homogenate ([5]; lung homogenate): 6.23 ± 0.60 nmol/mL; MDA Serum ([5]; serum): 14.04 ± 3.64 nmol/mL; Eosinophil percentage [6]: 4.32 ± 1.12 %; Number of WBCs [6]: 0.50 ± 0.17 ×10^9/L; Eotaxin [7]: 7.87 ± 0.45 pg/mL; IgE [8]: 3.23 ± 0.53 g μg/mL; IL-4 [9]: 9.96 ± 4.03 pg/mL; IL-10 [10]: 17.45 ± 5.60 pg/mL; SOD lavage fluid ([11]; BALF): 76.57 ± 12.52 U/mL; SOD Serum ([11]; serum): 74.83 ± 8.43 U/mL; MDA lavage fluid ([12]; BALF): 2.17 ± .17 nmol/mL; MDA Serum ([12]; serum): 10.99 ± 2.38 nmol/mL

From US10603345B2, “Pharmaceutical composition for treating respiratory disease” (Kunming Institute of Botany, The Chinese Academy of Sciences, priority 2015, dated 2020)
